From patent US20090104145A1, “Mixtures of Anthranilamide Invertebrate Pest Control Agents” (priority 2004, published 2009)
Like-named read-outs stand apart in the source and are kept apart here.

Tested on: western flower thrip (Frankliniella occidentalis Pergande)
Test: whole plant or invertebrate
Format: in vivo
Settings: Frankliniella occidentalis
Procedure: The pest control protection afforded by the mixtures or compositions is not limited, however, to these species. The analysis of synergism or antagonism between the mixtures or compositions was determined using Colby's equation. The average % mortality data for the test compounds alone were inserted into the Colby's equation. If the observed average % mortality was higher than “p”, the expected % mortality, the mixture or composition had synergistic effects. If the observed average % mortality was equal to or lower than the expected mortality, the mixture or composition either had no synergistic effect or an antagonistic effect. In these tests, Compound 1 is the compound of Formula 1.
Test compounds were formulated using a solution containing 10% acetone, 90% water and 300 ppm X-77® Spreader Lo-Foam Formula non-ionic surfactant containing alkylarylpolyoxyethylene, free fatty acids, glycols and isopropanol (Loveland Industries, Inc.) to provide the desired concentration in ppm. Formulated test solutions were then applied in 1 mL volumes through a SUJ2 atomizer nozzle with ⅛ JJ custom body (Spraying Systems Co.) positioned 1.27 cm (0.5 inches) above the top of each test unit.
For evaluating control of the western flower thrip (Frankliniella occidentalis Pergande) through contact and/or systemic means, each test unit consisted of a small open container with a 5- to 7-day-old bean (var. Soleil) plant inside.
Test solutions were formulated and sprayed with 3 replications as described for Test A. After spraying, the test units were allowed to dry for 1 hour, 22 to 27 adult thrips were added to each unit and then a black, screened cap was placed on top. The test units were held for 7 days at 25° C. and 45-55% relative humidity.

## CNC(=O)c1cc(C#N)cc(C)c1NC(=O)c1cc(Br)nn1-c1ncccc1Cl [Compound 1, 3-bromo-N-[4-cyano-2-methyl-6-[(methylamino)carbonyl]phenyl]-1-(3-chloro-2-pyridinyl)-1H-pyrazole-5-carboxamide]
Compound 1 0.3 ppm alone, read-out: % Mortality (observed)
  mortality at 0.3 ppm: 25%
Compound 1 1.3 ppm alone, read-out: % Mortality (observed)
  mortality at […]: 55%
Compound 1 6 ppm alone, read-out: % Mortality (observed)
  mortality at 6 ppm: 72%
Rate 0.3 ppm, read-out: % mortality (obs)
  mortality at 0.3 ppm: 42%
Rate 1.5 ppm, read-out: % mortality (obs)
  mortality at […]: 50%
Rate 6 ppm, read-out: % mortality (obs)
  mortality at 6 ppm: 61%
